Source: US9980943B2, “Methods of treating muscular dystrophy” (BOARD OF REGENTS OF THE NEVADA SYSTEM OF HIGHER EDUCATION, …, priority 2013, dated 2018)

Test system: α7 integrin (LacZ reporter in α7LacZ+/− myoblasts)
Experiment: qHTS of the LOPAC library and MLSMR (online screen, α7LacZ+/− myoblasts)
Details: Mus musculus, Myoblast; for activation at 0.307 µM / activation at 1.53 µM / activation at 7.66 µM / activation at 38.3 µM / Emax: 48 h; for activation at 0.307 µM: read-out: Activity at 0.307 uM [%] **; for activation at 1.53 µM: read-out: Activity at 1.530 uM [%] **; for activation at 7.66 µM: read-out: Activity at 7.660 uM [%] **; for activation at 38.3 µM: read-out: Activity at 38.30uM [%] **; for Emax: read-out: Fit Infinite Activity [%]; for EC50: read-out: Fit LogAC50 (converted)

Structure (SMILES)	activation at 0.307 µM [%]	activation at 1.53 µM [%]	activation at 7.66 µM [%]	activation at 38.3 µM [%]	Emax [%]	EC50 [µM]
CC(OC(=O)c1cc(-c2cccnc2)nc2ccccc12)C(=O)Nc1ccc2ccccc2c1 (stereo not drawn) [Compound 1]	0	143	198	191	195	1.12
Cc1cccc(OCc2nc(C#N)c(N3CCCC3)o2)c1 [Compound 2]	9.52	57	175	223	231	3.55
COc1ccccc1-c1coc2c3c(ccc2c1=O)OC1CCCCN1C3 (stereo not drawn) [Compound 3]	-34.2	9.57	154	159	158	2.24
Cc1ccccc1C(=O)Nc1scc(-c2ccc(Br)cc2)c1C(=O)O [Compound 4]	9.85	38.3	119	137	137	2.82
COc1cc2c(cc1NC(=O)Cc1ccc(C)cc1)oc1ccccc12 [Compound 5]	-1.8	58.4	87.2	687	87.4	1.12
COCc1c(C(=O)OCc2nc(=O)c3sccc3[nH]2)oc2ccccc12 [Compound 6]	-39.8	19.2	60.6	68.1	69.6	1.12
O=C(NC1CCCC1)c1ccc(CS(=O)(=O)Cc2ccccc2F)o1 [Compound 7]	13.4	25.3	80.6	105	107	4.47
CN(C)S(=O)(=O)c1cccc(C(=O)Nc2ccc3c(c2)CCC3)c1 [Compound 8]	-15.4	-10.6	96.4	94.3	96	2.82
